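Each compound was tested at five concentrations against cells in 96-well plates for 48 hours. GI50 is the concentration that inhibits growth by half.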 Active and inactive are the calls of the source. Rule as the data show it: active = GI50 up to about 1.1 µM and inactive = higher. Where a SMILES comes first, the peptide text is derived from it. [ ]: non-standard residue; d: D form. Phe(4-NO2) = N[CH](Cc1ccc([N+](=O)[O-])cc1)C(=O)O
Experiments:
Assay in all cases: inhibition of tumour cell growth, NCI panel, 48 h
A498 = test system: A498
A549 = test system: A549
BT-549 = test system: BT-549
Hs-578T = test system: Hs-578T
IGROV-1 = test system: IGROV-1
K562 = test system: K562
LOX IMVI = test system: LOX IMVI
M14 = test system: M14
NCI-H23 = test system: NCI-H23
OVCAR-8 = test system: OVCAR-8
RPMI-8226 = test system: RPMI-8226
SF-539 = test system: SF-539
SK-MEL-28 = test system: SK-MEL-28
SR = test system: SR
SW-620 = test system: SW-620
TK-10 = test system: TK-10
U-251 = test system: U-251
MDA-MB-231 = test system: MDA-MB-231
PC-3 = test system: PC-3

CN(C)CCCn1c2c3ccccc3ccc2c2oc(=O)c3ccccc3c21
GI50 (A498): 13.3 µM (inactive) | GI50 (A549): 4.53 µM (inactive) | GI50 (BT-549): > 40.6 µM (inactive) | GI50 (Hs-578T): > 36.6 µM (inactive) | GI50 (IGROV-1): 7.93 µM (inactive) | GI50 (K562): 2.45 µM (inactive) | GI50 (LOX IMVI): 4.63 µM (inactive) | GI50 (M14): 6.03 µM (inactive) | GI50 (NCI-H23): 6.82 µM (inactive) | GI50 (OVCAR-8): 3.57 µM (inactive) | GI50 (RPMI-8226): 4.63 µM (inactive) | GI50 (SF-539): 4.66 µM (inactive) | GI50 (SK-MEL-28): 7.46 µM (inactive) | GI50 (SR): 0.914 µM (active) | GI50 (SW-620): 2 µM (inactive) | GI50 (TK-10): 14.2 µM (inactive) | GI50 (U-251): 3.26 µM (inactive)

C[C@H](OCc1ccccc1)C(=O)N1CCS(=O)(=O)N2CCC[C@@H]2C1=O
GI50 (A498): > 100 µM (inactive) | GI50 (A549): > 100 µM (inactive) | GI50 (IGROV-1): > 100 µM (inactive) | GI50 (K562): > 100 µM (inactive) | GI50 (LOX IMVI): > 100 µM (inactive) | GI50 (M14): > 100 µM (inactive) | GI50 (NCI-H23): > 100 µM (inactive) | GI50 (OVCAR-8): > 100 µM (inactive) | GI50 (RPMI-8226): > 100 µM (inactive) | GI50 (SF-539): > 100 µM (inactive) | GI50 (SK-MEL-28): > 100 µM (inactive) | GI50 (SR): > 100 µM (inactive) | GI50 (SW-620): > 100 µM (inactive) | GI50 (TK-10): > 100 µM (inactive) | GI50 (U-251): > 100 µM (inactive)

Nc1nc(Cl)cc(NCC2(CO)CC(=O)C2)n1
GI50 (A549): > 100 µM (inactive) | GI50 (BT-549): > 100 µM (inactive) | GI50 (Hs-578T): > 100 µM (inactive) | GI50 (IGROV-1): > 100 µM (inactive) | GI50 (K562): > 100 µM (inactive) | GI50 (LOX IMVI): > 100 µM (inactive) | GI50 (MDA-MB-231): > 100 µM (inactive) | GI50 (NCI-H23): > 100 µM (inactive) | GI50 (OVCAR-8): 65.3 µM (inactive) | GI50 (PC-3): > 100 µM (inactive) | GI50 (RPMI-8226): > 100 µM (inactive) | GI50 (SF-539): > 100 µM (inactive) | GI50 (SK-MEL-28): > 100 µM (inactive) | GI50 (SR): > 100 µM (inactive) | GI50 (SW-620): > 100 µM (inactive) | GI50 (TK-10): > 100 µM (inactive) | GI50 (U-251): > 100 µM (inactive)

O=C(Nc1cccc2c1[nH]c1c(-c3ccccc3)nccc12)c1ccccc1[N+](=O)[O-]
GI50 (A498): 7.76 µM (inactive) | GI50 (A549): 24.4 µM (inactive) | GI50 (IGROV-1): 54.5 µM (inactive) | GI50 (K562): 21.9 µM (inactive) | GI50 (LOX IMVI): 24.5 µM (inactive) | GI50 (M14): 34.1 µM (inactive) | GI50 (NCI-H23): 34.7 µM (inactive) | GI50 (OVCAR-8): 24.8 µM (inactive) | GI50 (RPMI-8226): 30.7 µM (inactive) | GI50 (SF-539): 20.2 µM (inactive) | GI50 (SK-MEL-28): 49.5 µM (inactive) | GI50 (SR): 12.5 µM (inactive) | GI50 (SW-620): 41.2 µM (inactive) | GI50 (TK-10): 33 µM (inactive) | GI50 (U-251): 34.2 µM (inactive)

COC(=O)C(=O)C(C(=O)C(=O)Nc1ccc(Cl)cc1Cl)c1nc2ccc(Cl)cc2nc1O (configuration not stated)
GI50 (A549): > 100 µM (inactive) | GI50 (BT-549): > 100 µM (inactive) | GI50 (Hs-578T): > 100 µM (inactive) | GI50 (IGROV-1): 58.7 µM (inactive) | GI50 (LOX IMVI): > 100 µM (inactive) | GI50 (M14): > 100 µM (inactive) | GI50 (MDA-MB-231): > 100 µM (inactive) | GI50 (NCI-H23): > 100 µM (inactive) | GI50 (OVCAR-8): > 100 µM (inactive) | GI50 (PC-3): > 100 µM (inactive) | GI50 (SF-539): > 100 µM (inactive) | GI50 (SK-MEL-28): > 100 µM (inactive) | GI50 (SW-620): > 100 µM (inactive) | GI50 (TK-10): 69.8 µM (inactive) | GI50 (U-251): > 100 µM (inactive)

Nc1ccc2c(c1)NCCN2
GI50 (A549): 18.2 µM (inactive) | GI50 (BT-549): 37.2 µM (inactive) | GI50 (Hs-578T): 7.76 µM (inactive) | GI50 (IGROV-1): 8.36 µM (inactive) | GI50 (K562): 18.3 µM (inactive) | GI50 (LOX IMVI): 8.05 µM (inactive) | GI50 (M14): 73.1 µM (inactive) | GI50 (MDA-MB-231): > 100 µM (inactive) | GI50 (NCI-H23): 78.9 µM (inactive) | GI50 (OVCAR-8): 50.9 µM (inactive) | GI50 (PC-3): > 100 µM (inactive) | GI50 (RPMI-8226): 70.1 µM (inactive) | GI50 (SF-539): 14.7 µM (inactive) | GI50 (SK-MEL-28): > 100 µM (inactive) | GI50 (SR): 1.69 µM (inactive) | GI50 (TK-10): 55.7 µM (inactive) | GI50 (U-251): 22.9 µM (inactive)

O=C(N=C1N(c2ccccc2)C(=O)C(=O)N1c1ccccc1)c1ccccc1
GI50 (A498): 18.2 µM (inactive) | GI50 (A549): 5.48 µM (inactive) | GI50 (Hs-578T): 4.65 µM (inactive) | GI50 (IGROV-1): 10.5 µM (inactive) | GI50 (K562): 29.2 µM (inactive) | GI50 (LOX IMVI): 3.78 µM (inactive) | GI50 (MDA-MB-231): 6.9 µM (inactive) | GI50 (NCI-H23): 13.6 µM (inactive) | GI50 (OVCAR-8): 9.35 µM (inactive) | GI50 (PC-3): 14.7 µM (inactive) | GI50 (RPMI-8226): 13.8 µM (inactive) | GI50 (SF-539): 12.6 µM (inactive) | GI50 (SK-MEL-28): 17.5 µM (inactive) | GI50 (SR): 7.46 µM (inactive) | GI50 (SW-620): 13.1 µM (inactive) | GI50 (TK-10): 15.3 µM (inactive) | GI50 (U-251): 11.7 µM (inactive)

CC(NC(=O)C(Cc1ccc([N+](=O)[O-])cc1)NC(=O)C(N)CCCCN)C(=O)NC(Cc1ccc([N+](=O)[O-])cc1)C(N)=O (configuration not stated) (H-K[Phe(4-NO2)]A[Phe(4-NO2)]-NH2; configuration not given here)
GI50 (A498): 85.5 µM (inactive) | GI50 (A549): 23 µM (inactive) | GI50 (BT-549): 27.6 µM (inactive) | GI50 (Hs-578T): > 68.7 µM (inactive) | GI50 (IGROV-1): 26.2 µM (inactive) | GI50 (K562): > 20.5 µM (inactive) | GI50 (LOX IMVI): > 100 µM (inactive) | GI50 (M14): > 50.5 µM (inactive) | GI50 (MDA-MB-231): 39.6 µM (inactive) | GI50 (NCI-H23): 85.3 µM (inactive) | GI50 (OVCAR-8): 23.9 µM (inactive) | GI50 (PC-3): 32.5 µM (inactive) | GI50 (RPMI-8226): 29.2 µM (inactive) | GI50 (SF-539): 58.1 µM (inactive) | GI50 (SK-MEL-28): 75.7 µM (inactive) | GI50 (SW-620): 27.2 µM (inactive) | GI50 (TK-10): > 59.4 µM (inactive) | GI50 (U-251): > 42.2 µM (inactive)

c1ccc(Sc2nc(Sc3ccccc3)nc(Sc3ccccc3)n2)cc1
GI50 (A498): 29.9 µM (inactive) | GI50 (A549): 28.5 µM (inactive) | GI50 (BT-549): > 100 µM (inactive) | GI50 (Hs-578T): 13.3 µM (inactive) | GI50 (K562): > 100 µM (inactive) | GI50 (LOX IMVI): > 100 µM (inactive) | GI50 (M14): > 100 µM (inactive) | GI50 (MDA-MB-231): > 100 µM (inactive) | GI50 (NCI-H23): > 100 µM (inactive) | GI50 (PC-3): 7.11 µM (inactive) | GI50 (RPMI-8226): 15.4 µM (inactive) | GI50 (SF-539): 31.7 µM (inactive) | GI50 (SK-MEL-28): 43.7 µM (inactive) | GI50 (SR): > 100 µM (inactive) | GI50 (TK-10): 44.6 µM (inactive) | GI50 (U-251): 19.4 µM (inactive)

Cc1cc(C)cc(Nc2nnc3n2S(=O)(=O)c2cc(C#N)c(Cl)cc2S3)c1
GI50 (A498): 16.3 µM (inactive) | GI50 (A549): 16.2 µM (inactive) | GI50 (BT-549): 2.16 µM (inactive) | GI50 (Hs-578T): 2.68 µM (inactive) | GI50 (IGROV-1): 0.505 µM (active) | GI50 (K562): 1.47 µM (inactive) | GI50 (LOX IMVI): 2.89 µM (inactive) | GI50 (M14): 5.57 µM (inactive) | GI50 (MDA-MB-231): 3.13 µM (inactive) | GI50 (NCI-H23): 1.77 µM (inactive) | GI50 (SF-539): 1.89 µM (inactive) | GI50 (SK-MEL-28): 3.21 µM (inactive) | GI50 (SR): 0.507 µM (active) | GI50 (SW-620): 2.39 µM (inactive) | GI50 (U-251): 1.96 µM (inactive)

COC(=O)C1(O)CC(=O)CCC1c1ccc(OC)cc1 (configuration not stated)
GI50 (A498): > 100 µM (inactive) | GI50 (A549): > 100 µM (inactive) | GI50 (IGROV-1): > 100 µM (inactive) | GI50 (K562): > 100 µM (inactive) | GI50 (LOX IMVI): > 100 µM (inactive) | GI50 (M14): > 100 µM (inactive) | GI50 (NCI-H23): > 100 µM (inactive) | GI50 (OVCAR-8): > 100 µM (inactive) | GI50 (RPMI-8226): > 100 µM (inactive) | GI50 (SF-539): > 100 µM (inactive) | GI50 (SK-MEL-28): > 100 µM (inactive) | GI50 (SR): > 100 µM (inactive) | GI50 (SW-620): > 100 µM (inactive) | GI50 (TK-10): > 100 µM (inactive) | GI50 (U-251): > 100 µM (inactive)

Cc1ccc(NC(=O)C(=O)CC(=O)c2c(C)[n+]([O-])c3ccccc3[n+]2[O-])cc1C
GI50 (A498): > 100 µM (inactive) | GI50 (A549): > 100 µM (inactive) | GI50 (IGROV-1): > 100 µM (inactive) | GI50 (K562): > 100 µM (inactive) | GI50 (LOX IMVI): > 100 µM (inactive) | GI50 (M14): 74.8 µM (inactive) | GI50 (NCI-H23): > 100 µM (inactive) | GI50 (OVCAR-8): > 100 µM (inactive) | GI50 (RPMI-8226): > 100 µM (inactive) | GI50 (SF-539): > 100 µM (inactive) | GI50 (SK-MEL-28): > 100 µM (inactive) | GI50 (SR): 33.5 µM (inactive) | GI50 (SW-620): 49.4 µM (inactive) | GI50 (TK-10): > 100 µM (inactive) | GI50 (U-251): > 100 µM (inactive)
